# Experimental data: US10973831B2, “Fluoropiperidine compounds as pure 5-HT 6 receptor antagonists” (SUVEN LIFE SCIENCES LIMITED, priority 2017, dated 2021)
# Assays:
# recombinant human 5-HT2A = target: T1, recombinant human 5-HT2A (Homo sapiens, UniProt P28223); assay: Determination of 5-HT2A binding ([3H]-Ketanserin radioligand, membranes); conditions: human 5-HT2A membranes, [3H]-Ketanserin 1.75 nM
# T1 construct: purchased Perkin Elmer ES-313-M400UA
# Description: Membrane preparation from recombinant human 5-HT2A cell line (Cat no. ES-313-M400UA) and radio ligand Ketanserin Hydrochloride, [Ethylene-^3H]-(R-41468) (Cat no. NET791250UC) were purchased from Perkin Elmer. All other reagents used in buffer preparation were purchased from Sigma. The final ligand concentration was 1.75 nM; non-specific determinant was 1-NP [10 μM] and 5-HT2A membrane protein (5 μg/well). 1-NP was used as a positive control. Reactions were carried out in 67 mM Tris pH 7.6 containing 0.5 mM EDTA buffer for 60 minutes at 25° C. Reaction was stopped by rapid filtration followed by six washes of the binding mixture using 96 well harvest plate (Millipore Cat no. MSFBNXB50) pre coated with 0.33% polyethyleneimine. The plate was dried and the bound radioactivity collected on the filters was determined by scintillation counting using MicroBeta TriLux. Radio ligand binding in the presence of non-labeled compound was expressed as a percent of the total binding and plotted against the log concentration of the compound. Ki values were determined using a nonlinear, iterative curve-fitting computer program of Graph pad Prism 4 software.
# [1] = Rodent brain penetration study; type: in vivo, male Wistar rats; conditions: male, Wistar, brain and plasma, po; rat, 3 mg/kg, p.o., brain-plasma ratio; read-out: Single dose rat brain penetration (Cb/Cp)
# Description: Male Wistar rats (260±40 grams) were used as experimental animals. Three animals were housed in each cage. Animals were given water and food ad libitum throughout the experiment and maintained on a 12 hours light/dark cycle.
# Brain penetration was determined in discrete manner in rats. One day prior to dosing day, male Wistar rats were acclimatized and randomly grouped according to their weight. At each time point (0.50, 1 and 2 hours) n=3 animals were used.
# The test compounds were suitably preformulated and administered orally at (free base equivalent) 3 mg/kg. Blood samples were collected via cardiac puncture by using isoflurane anesthesia. The animals were sacrificed to collect brain tissue. Plasma was separated and brain samples were homogenized and stored frozen at −20° C. until analysis. The concentrations of the test compounds in plasma and brain were determined using LC-MS/MS method.
# The test compounds were quantified in plasma and brain homogenate by qualified LC-MS/MS method using suitable extraction technique. The test compounds were quantified in the calibration range of 1-1000 ng/mL in plasma and brain homogenate. Study samples were analyzed using calibration samples in the batch and quality control samples spread across the batch. Extent of brain-plasma ratio (Cb/Cp) was calculated.
# [2] = system: extracellular levels of acetylcholine in ventral hippocampus; assay: Acetylcholine modulation in ventral hippocampus (microdialysis); type: in vivo, male Wistar rats; conditions: Example 1 10 mg/kg; for acetylcholine peak levels, % of pre-dose levels: p.o. in combination with donepezil 1 mg/kg, s.c.
# Description: Four groups of male Wistar rats (240-300 g body weight) were stereotaxically implanted with a microdialysis guide cannula in ventral hippocampus (AP: −5.2 mm, ML: +5.0 mm, DV: −3.8 mm) under isoflurane anesthesia. Co-ordinates were taken according to atlas for the rat brain (Paxinos and Watson 2004) with reference points taken from bregma and vertical from the skull. […] After surgical recovery of 4-5 days, male Wistar rats were connected to dual quartz lined two-channel liquid swivel (Instech, UK) on a counter balance lever arm, which allowed unrestricted movements of the animal. […] On the day of study, probe was perfused with artificial cerebrospinal fluid (aCSF; NaCl 147 mM, KC13 mM, MgCl2 1 mM, CaCl2. 2H2O 1.3 mM, NaH2PO4.2H2O 0.2 mM and Na2HPO4.7H2O 1 mM, pH 7.2) at a flow rate of 1.5 μL/min and a stabilization period of 2 h was maintained. […] Dialysate samples were collected for an additional period of 4 h post treatment of example 1. Dialysates were stored below −50° C. prior to analysis. Acetylcholine in dialysate was quantified using LC-MS/MS method in the calibration range of 0.099 nmol/L-70.171 nmol/L. […] Incorrect probe placement was considered as criteria to reject the data from animal.
# [3] = Non-clinical toxicology, repeated dose toxicity study in rat; type: in vivo; conditions: rat, female rats
# Description: (§1) The safety of the example 1 of instant invention and comparator example of U.S. Pat. No. 7,378,415 were evaluated in repeated dose toxicity study in rat.
# (§2) Female rats were used as experimental animals for evaluating the toxicity profile of example 1 of instant invention and the comparator example of U.S. Pat. No. 7,378,415.
# (§3) During the study, female rats were dosed at incremental doses for minimum of 4 days. Toxicity assessment was done on the mortality, clinical observation, change in the body weight, feed consumption, clinical and anatomical pathology. Systemic exposures were also estimated for both of the compounds. All quantitative variables are compared with control group using one-way ANOVA followed by Dunnet's post-hoc test on GraphPad Prism Software version 4, 2003.
# Female rats = assay: as above; type: in vivo; conditions: repeated dose toxicity
# Description: as §1, §2, §3
# Male Wistar rats = assay: Object recognition task model; type: in vivo; conditions: rat, 0.1 mg/kg, p.o.
# Description: The cognition-enhancing properties of compounds of this invention were estimated using an animal model of cognition i.e., object recognition task.
# Male Wistar rats (˜230-280 grams) were used as experimental animals. Four animals were housed in each cage. Animals were kept on 20% food deprivation before one day and given water ad libitum throughout the experiment and maintained on a 12 hours light/dark cycle. The rats were habituated to individual arenas for […] in the absence of any objects.
# One group of 12 rats received vehicle (1 mL/kg) orally and another set of animals received compound of the formula (I) orally thirty minutes prior to familiar (T1) and choice trial (T2).
# The experiment was carried out in a 50×50×50 cm open field made up of acrylic. During the familiarization phase (T1), the rats were placed individually in the open field for 3 minutes, in which two identical objects (plastic bottles, 12.5 cm height×5.5 cm diameter) covered in yellow masking tape alone (a1 and a2) were positioned in two adjacent corners (10 cm from the walls). After 24 hours of the (T1) trial, the same rats were placed in the same arena as they were placed in T1 trial. During the choice phase (T2) rats were allowed to explore the open field for 3 minutes in presence of one familiar object (a3) and one novel object (b) (Amber color glass bottle, 12 cm high and 5 cm in diameter). During the T1 and T2 trial, explorations of each object (defined as sniffing, licking, chewing or having moving vibrissae whilst directing the nose towards the object at a distance of less than 1 cm) were recorded separately by stopwatch.
# T1 is the total time spent exploring the familiar objects (a1+a2).
# T2 is the total time spent exploring the familiar object and novel object (a3+b).
# T1 sequence (P28223 whole entry): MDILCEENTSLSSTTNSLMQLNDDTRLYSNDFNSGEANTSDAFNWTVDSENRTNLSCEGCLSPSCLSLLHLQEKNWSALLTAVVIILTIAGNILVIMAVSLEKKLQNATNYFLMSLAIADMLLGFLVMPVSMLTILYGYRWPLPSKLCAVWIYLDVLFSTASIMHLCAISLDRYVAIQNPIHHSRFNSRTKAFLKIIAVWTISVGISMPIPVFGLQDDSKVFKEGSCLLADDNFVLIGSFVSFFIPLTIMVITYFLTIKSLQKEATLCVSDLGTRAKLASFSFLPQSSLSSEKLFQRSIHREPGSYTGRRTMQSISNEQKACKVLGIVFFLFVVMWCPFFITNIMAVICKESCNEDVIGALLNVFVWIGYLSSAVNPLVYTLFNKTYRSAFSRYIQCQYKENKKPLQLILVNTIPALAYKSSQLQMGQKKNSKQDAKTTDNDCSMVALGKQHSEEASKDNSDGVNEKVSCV
smiles,measurement,setting,value
"Cl.O=S(=O)(c1ccccc1)c1ccc2c(c1)OCCN2C1CCNCC1F (single isomer, unassigned; peak iii) [Example 1, 7-Phenylsulfonyl-4-(3-fluoropiperidin-4-yl)-3,4-dihydro-2H-benzo[1,4]oxazine hydrochloride (Peak III)]",Ki,recombinant human 5-HT2A,130 nM
same,Kp,[1],0.78 ± 0.2
same,Mean area under the curve values (AUC) of percent change in acetylcholine,"[2]; p.o. + donepezil + memantine, compared to donepezil and memantine combination",significantly higher
same,Mean area under the curve values (AUC) of percent change in acetylcholine,"[2]; p.o. + donepezil, compared to donepezil 1 mg/kg, s.c. alone",significantly higher
same,"acetylcholine peak levels, % of pre-dose levels",[2],1445±247%
same,"acetylcholine peak levels, % of pre-dose levels",[2]; s.c. and memantine 1 mg/kg,2822±415%
same,NOAEL at 4 days,"[3]; in vivo, 4-Day repeat tox",300 mg/kg
same,MTD,"[3]; in vivo, repeated incremental doses, read-out: Maximum Tolerated Dose",≥ 300 mg/kg
same,AUC,"[3]; plasma, repeated dose toxicity study, read-out: AUC (systemic exposure in toxicity study)",38100 ng·h/mL
same,Cmax,"[3]; plasma, repeated dose toxicity study, read-out: Cmax (systemic exposure in toxicity study)",2420 ng/mL
same,Findings (mortality),Female rats,No death up
same,Findings (mortality),Female rats; listed as example 1,no deaths were observed at doses as high as 300 mg/kg
same,"Exploration time mean ± S.E.M, Familiar object",Male Wistar rats; choice trial T2,7.03 ± 1.1 s
same,"Exploration time mean ± S.E.M, Novel object",Male Wistar rats; choice trial T2,12.16 ± 0.72 s
same,Inference,Male Wistar rats; object recognition task,Active
